Measurements: the supplement of paper PMC10307832

Key:
Assay in all cases: relative viability (nuclei count vs DMSO), 5 days (fraction); higher = more cells survive
[1] = tested on: LU99A
Outline: (§1)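 Lung cancer cell lines, seeded in 1536-well plates, were treated the following day by pin tool with a single drug or with five library-drug doses (not always all listed) in √10 steps on top of a fixed anchor-drug dose. Cells were fixed and nuclei stained in one step after 5 days, and nuclei were counted. Relative viability is the nuclei count for treated wells divided by that for vehicle wells, reported as medians of duplicate plates.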

[2] = tested on: NCI-H1395
Outline: as §1

[3] = tested on: NCI-H2228
Outline: as §1

[4] = tested on: UMC-11
Outline: as §1

[5] = tested on: NCI-H2087
Outline: as §1

[6] = tested on: RERF-LC-KJ
Outline: as §1

[7] = tested on: NCI-H1793
Outline: as §1

[8] = tested on: NCI-H3122
Outline: as §1

[9] = tested on: LOU-NH91
Outline: as §1

[10] = tested on: EPLC-272H
Outline: as §1

[11] = tested on: CAL-12T
Outline: as §1

[12] = tested on: NCI-H460
Outline: as §1

[13] = tested on: NCI-H2405
Outline: as §1

[14] = tested on: NCI-H1651
Outline: as §1

[15] = tested on: NCI-H1755
Outline: as §1

[16] = tested on: ChaGo-K-1
Outline: as §1

[17] = tested on: NCI-H1944
Outline: as §1

[18] = tested on: NCI-H2170
Outline: as §1

[19] = tested on: HCC-78
Outline: as §1

[20] = tested on: NCI-H1734
Outline: as §1

[21] = tested on: HCC-366
Outline: as §1

[22] = tested on: PC-3 [JPC-3]
Outline: as §1

[23] = tested on: LC-2-ad
Outline: as §1

SMILES: Clc1ccc(Nc2nnc(Cc3ccncc3)c3ccccc23)cc1 [Vatalanib] + CC(=O)Nc1cccc(-n2c(=O)n(C3CC3)c(=O)c3c(Nc4ccc(I)cc4F)n(C)c(=O)c(C)c32)c1 [Trametinib] (partner 0.02 µM)
- relative viability ([1]; first compound 0.04 µM): 0.563
- relative viability ([1]; first compound 0.1265 µM): 0.527
- relative viability ([1]; first compound 0.4 µM): 0.647
- relative viability ([1]; first compound 1.265 µM): 0.492
- relative viability ([1]; first compound 4 µM): 0.521
- relative viability ([2]; first compound 0.04 µM): 1.1
- relative viability ([2]; first compound 0.1265 µM): 1.03
- relative viability ([2]; first compound 0.4 µM): 1.14
- relative viability ([2]; first compound 4 µM): 0.974
- relative viability ([3]; first compound 0.04 µM): 0.542
- relative viability ([3]; first compound 0.1265 µM): 0.467
- relative viability ([3]; first compound 0.4 µM): 0.666
- relative viability ([3]; first compound 1.265 µM): 0.782
- relative viability ([3]; first compound 4 µM): 0.44
- relative viability ([4]; first compound 0.04 µM): 0.761
- relative viability ([4]; first compound 0.1265 µM): 0.769
- relative viability ([4]; first compound 0.4 µM): 0.418
- relative viability ([4]; first compound 1.265 µM): 0.688
- relative viability ([4]; first compound 4 µM): 0.847
- relative viability ([5]; first compound 0.04 µM): 0.245
- relative viability ([5]; first compound 0.1265 µM): 0.197
- relative viability ([5]; first compound 0.4 µM): 0.249
- relative viability ([5]; first compound 1.265 µM): 0.194
- relative viability ([5]; first compound 4 µM): 0.179
- relative viability ([6]; first compound 0.04 µM): 0.931
- relative viability ([6]; first compound 0.1265 µM): 0.867
- relative viability ([6]; first compound 0.4 µM): 0.903
- relative viability ([6]; first compound 1.265 µM): 0.791
- relative viability ([6]; first compound 4 µM): 0.782
- relative viability ([7]; first compound 0.04 µM): 0.372
- relative viability ([7]; first compound 0.1265 µM): 0.494
- relative viability ([7]; first compound 0.4 µM): 0.424
- relative viability ([7]; first compound 1.265 µM): 0.388
- relative viability ([7]; first compound 4 µM): 0.425
- relative viability ([8]; first compound 0.04 µM): 0.239
- relative viability ([8]; first compound 0.1265 µM): 0.229
- relative viability ([8]; first compound 0.4 µM): 0.238
- relative viability ([8]; first compound 1.265 µM): 0.244
- relative viability ([8]; first compound 4 µM): 0.212
- relative viability ([9]; first compound 0.04 µM): 0.769
- relative viability ([9]; first compound 0.1265 µM): 0.764
- relative viability ([9]; first compound 0.4 µM): 0.794
- relative viability ([9]; first compound 1.265 µM): 0.746
- relative viability ([9]; first compound 4 µM): 0.765
- relative viability ([10]; first compound 0.04 µM): 0.284
- relative viability ([10]; first compound 0.1265 µM): 0.247
- relative viability ([10]; first compound 0.4 µM): 0.327
- relative viability ([10]; first compound 1.265 µM): 0.264
- relative viability ([10]; first compound 4 µM): 0.268
- relative viability ([11]; first compound 0.04 µM): 0.366
- relative viability ([11]; first compound 0.1265 µM): 0.296
- relative viability ([11]; first compound 0.4 µM): 0.368
- relative viability ([11]; first compound 1.265 µM): 0.366
- relative viability ([11]; first compound 4 µM): 0.298
- relative viability ([12]; first compound 0.04 µM): 0.178
- relative viability ([12]; first compound 0.1265 µM): 0.11
- relative viability ([12]; first compound 0.4 µM): 0.201
- relative viability ([12]; first compound 1.265 µM): 0.135
- relative viability ([12]; first compound 4 µM): 0.0924
- relative viability ([13]; first compound 0.04 µM): 0.696
- relative viability ([13]; first compound 0.1265 µM): 0.568
- relative viability ([13]; first compound 0.4 µM): 0.683
- relative viability ([13]; first compound 4 µM): 0.557
- relative viability ([14]; first compound 0.04 µM): 0.802
- relative viability ([14]; first compound 0.1265 µM): 0.778
- relative viability ([14]; first compound 0.4 µM): 0.779
- relative viability ([14]; first compound 1.265 µM): 0.742
- relative viability ([14]; first compound 4 µM): 0.809
- relative viability ([15]; first compound 0.04 µM): 0.734
- relative viability ([15]; first compound 0.1265 µM): 0.812
- relative viability ([15]; first compound 0.4 µM): 0.753
- relative viability ([15]; first compound 1.265 µM): 0.788
- relative viability ([15]; first compound 4 µM): 0.717
- relative viability ([16]; first compound 0.04 µM): 0.86
- relative viability ([16]; first compound 0.1265 µM): 0.823
- relative viability ([16]; first compound 0.4 µM): 0.928
- relative viability ([16]; first compound 1.265 µM): 0.877
- relative viability ([16]; first compound 4 µM): 0.881
- relative viability ([17]; first compound 0.04 µM): 0.42
- relative viability ([17]; first compound 0.1265 µM): 0.373
- relative viability ([17]; first compound 0.4 µM): 0.438
- relative viability ([17]; first compound 1.265 µM): 0.425
- relative viability ([17]; first compound 4 µM): 0.386
- relative viability ([18]; first compound 0.04 µM): 0.926
- relative viability ([18]; first compound 0.1265 µM): 0.857
- relative viability ([18]; first compound 0.4 µM): 0.856
- relative viability ([18]; first compound 1.265 µM): 0.892
- relative viability ([18]; first compound 4 µM): 0.899
- relative viability ([19]; first compound 0.04 µM): 0.729
- relative viability ([19]; first compound 0.1265 µM): 0.794
- relative viability ([19]; first compound 0.4 µM): 0.809
- relative viability ([19]; first compound 1.265 µM): 0.822
- relative viability ([19]; first compound 4 µM): 0.694
- relative viability ([20]; first compound 0.04 µM): 0.731
- relative viability ([20]; first compound 0.1265 µM): 0.673
- relative viability ([20]; first compound 0.4 µM): 0.705
- relative viability ([20]; first compound 1.265 µM): 0.655
- relative viability ([20]; first compound 4 µM): 0.684
- relative viability ([21]; first compound 0.04 µM): 0.393
- relative viability ([21]; first compound 0.1265 µM): 0.294
- relative viability ([21]; first compound 0.4 µM): 0.372
- relative viability ([21]; first compound 1.265 µM): 0.306
- relative viability ([21]; first compound 4 µM): 0.299
- relative viability ([22]; first compound 0.04 µM): 0.78
- relative viability ([22]; first compound 0.1265 µM): 0.675
- relative viability ([22]; first compound 0.4 µM): 0.547
- relative viability ([22]; first compound 1.265 µM): 0.619
- relative viability ([22]; first compound 4 µM): 0.646
- relative viability ([23]; first compound 0.04 µM): 0.97
- relative viability ([23]; first compound 0.1265 µM): 0.77
- relative viability ([23]; first compound 0.4 µM): 0.965
- relative viability ([23]; first compound 1.265 µM): 0.919
- relative viability ([23]; first compound 4 µM): 0.892
